Laboratory results taken from ChEMBL document CHEMBL3885881, “DrugMatrix”.

Organism: Rattus norvegicus
Experiment: DrugMatrix - Regimen: Daily Repeat
Format: toxicity, organism-based, Sprague-Dawley
Design: regimen Daily Repeat, gender Male, age 6-8 weeks
Conditions: in vivo, po, route oral GAVAGE, vehicle 100 % WATER; for ABSOLUTE BASOPHIL / ABSOLUTE EOSINOPHIL / ABSOLUTE LYMPHOCYTE / ABSOLUTE MONOCYTE / ABSOLUTE SEGMENTED NEUTROPHIL / BASOPHIL / EOSINOPHIL / ERYTHROCYTE COUNT / HEMATOCRIT / HEMOGLOBIN / LEUKOCYTE COUNT / LYMPHOCYTE / MEAN CORPUSCULAR HEMOGLOBIN / MEAN CORPUSCULAR HEMOGLOBIN CONCENTRATION / MEAN CORPUSCULAR VOLUME / MONOCYTE / NEUTROPHIL / NUCLEATED RED BLOOD CELLS / PLATELET COUNT: tissue Blood; for ALANINE AMINOTRANSFERASE / ALBUMIN / ALKALINE PHOSPHATASE / ASPARTATE AMINOTRANSFERASE / BLOOD UREA NITROGEN / CARBON DIOXIDE / CHLORIDE / CHOLESTEROL / CREATINE PHOSPHOKINASE / CREATININE / GLUCOSE / LACTATE DEHYDROGENASE / LIPASE / PHOSPHORUS / POTASSIUM / SODIUM / TOTAL BILIRUBIN / TOTAL PROTEIN / URIC ACID: tissue Plasma
[1] = 0 mg/kg, 72 h, dose level Control, time 3 day
[2] = 0 mg/kg, 120 h, dose level Control, time 5 day
[3] = 31 mg/kg, 72 h, dose level Low, time 3 day

SMILES: Nc1ccc(S(=O)(=O)Nc2nccs2)cc1 [SULFATHIAZOLE]
- ABSOLUTE BASOPHIL [1]: 0 CELLS/uL
- ABSOLUTE EOSINOPHIL [1]: 0 CELLS/uL
- ABSOLUTE LYMPHOCYTE [1]: 8482.5 CELLS/uL
- ABSOLUTE MONOCYTE [1]: 63.83 CELLS/uL
- ABSOLUTE SEGMENTED NEUTROPHIL [1]: 887 CELLS/uL
- BASOPHIL [1]: 0%
- EOSINOPHIL [1]: 0%
- ERYTHROCYTE COUNT [1]: 5.49 x10E6/uL
- HEMATOCRIT [1]: 34.5%
- HEMOGLOBIN [1]: 13.33 G/DL
- LEUKOCYTE COUNT [1]: 9.43 x10E3/uL
- LYMPHOCYTE [1]: 90.17%
- MEAN CORPUSCULAR HEMOGLOBIN [1]: 24.3 pg
- MEAN CORPUSCULAR HEMOGLOBIN CONCENTRATION [1]: 38.63 G/DL
- MEAN CORPUSCULAR VOLUME [1]: 62.88 fL
- MONOCYTE [1]: 0.67%
- NEUTROPHIL [1]: 9.17%
- NUCLEATED RED BLOOD CELLS [1]: 0.67 /100WBC
- PLATELET COUNT [1]: 1022.83 x10E3/uL
- ALANINE AMINOTRANSFERASE [1]: 50.5 u/L
- ALBUMIN [1]: 4.08 G/DL
- ALKALINE PHOSPHATASE [1]: 368.33 u/L
- ASPARTATE AMINOTRANSFERASE [1]: 87.5 u/L
- BLOOD UREA NITROGEN [1]: 12.83 mg/dL
- CARBON DIOXIDE [1]: 32.83 mmol/L
- CHLORIDE [1]: 99.67 MEQ/L
- CHOLESTEROL [1]: 79.67 mg/dL
- CREATINE PHOSPHOKINASE [1]: 585 u/L
- CREATININE [1]: 0.22 mg/dL
- GLUCOSE [1]: 135.67 mg/dL
- LACTATE DEHYDROGENASE [1]: 171 u/L
- LIPASE [1]: 9.5 u/L
- PHOSPHORUS [1]: 11.18 mg/dL
- POTASSIUM [1]: 6.25 MEQ/L
- SODIUM [1]: 144.87 MEQ/L
- TOTAL BILIRUBIN [1]: 0.2 mg/dL
- TOTAL PROTEIN [1]: 6.08 G/DL
- URIC ACID [1]: 0.65 mg/dL
- ABSOLUTE BASOPHIL [2]: 0 CELLS/uL
- ABSOLUTE EOSINOPHIL [2]: 14.5 CELLS/uL
- ABSOLUTE LYMPHOCYTE [2]: 7596.17 CELLS/uL
- ABSOLUTE MONOCYTE [2]: 69.67 CELLS/uL
- ABSOLUTE SEGMENTED NEUTROPHIL [2]: 503 CELLS/uL
- BASOPHIL [2]: 0%
- EOSINOPHIL [2]: 0.17%
- ERYTHROCYTE COUNT [2]: 5.49 x10E6/uL
- HEMATOCRIT [2]: 34.72%
- HEMOGLOBIN [2]: 13.47 G/DL
- LEUKOCYTE COUNT [2]: 8.18 x10E3/uL
- LYMPHOCYTE [2]: 92.17%
- MEAN CORPUSCULAR HEMOGLOBIN [2]: 24.57 pg
- MEAN CORPUSCULAR HEMOGLOBIN CONCENTRATION [2]: 38.82 G/DL
- MEAN CORPUSCULAR VOLUME [2]: 63.3 fL
- MONOCYTE [2]: 1%
- NEUTROPHIL [2]: 6.67%
- NUCLEATED RED BLOOD CELLS [2]: 0 /100WBC
- PLATELET COUNT [2]: 1141 x10E3/uL
- ALANINE AMINOTRANSFERASE [2]: 48.33 u/L
- ALBUMIN [2]: 4.07 G/DL
- ALKALINE PHOSPHATASE [2]: 395.67 u/L
- ASPARTATE AMINOTRANSFERASE [2]: 85.67 u/L
- BLOOD UREA NITROGEN [2]: 15.83 mg/dL
- CARBON DIOXIDE [2]: 31.33 mmol/L
- CHLORIDE [2]: 100.83 MEQ/L
- CHOLESTEROL [2]: 62.33 mg/dL
- CREATINE PHOSPHOKINASE [2]: 248.33 u/L
- CREATININE [2]: 0.2 mg/dL
- GLUCOSE [2]: 135.67 mg/dL
- LACTATE DEHYDROGENASE [2]: 141.33 u/L
- LIPASE [2]: 9.5 u/L
- PHOSPHORUS [2]: 10.73 mg/dL
- POTASSIUM [2]: 6.07 MEQ/L
- SODIUM [2]: 145.35 MEQ/L
- TOTAL BILIRUBIN [2]: 0.22 mg/dL
- TOTAL PROTEIN [2]: 6.12 G/DL
- URIC ACID [2]: 0.63 mg/dL
- ABSOLUTE BASOPHIL [3]: 0 CELLS/uL
- ABSOLUTE EOSINOPHIL [3]: 0 CELLS/uL
- ABSOLUTE LYMPHOCYTE [3]: 8271.67 CELLS/uL
- ABSOLUTE MONOCYTE [3]: 54.33 CELLS/uL
- ABSOLUTE SEGMENTED NEUTROPHIL [3]: 707.33 CELLS/uL
- BASOPHIL [3]: 0%
- EOSINOPHIL [3]: 0%
- ERYTHROCYTE COUNT [3]: 5.15 x10E6/uL
- HEMATOCRIT [3]: 32.73%
- HEMOGLOBIN [3]: 12.87 G/DL
- LEUKOCYTE COUNT [3]: 9.03 x10E3/uL
- LYMPHOCYTE [3]: 91.33%
- MEAN CORPUSCULAR HEMOGLOBIN [3]: 25.13 pg
- MEAN CORPUSCULAR HEMOGLOBIN CONCENTRATION [3]: 39.33 G/DL
- MEAN CORPUSCULAR VOLUME [3]: 63.97 fL
- MONOCYTE [3]: 0.67%
- NEUTROPHIL [3]: 8%
- NUCLEATED RED BLOOD CELLS [3]: 0 /100WBC
- PLATELET COUNT [3]: 928 x10E3/uL
- ALANINE AMINOTRANSFERASE [3]: 54.67 u/L
- ALBUMIN [3]: 4.13 G/DL
- ALKALINE PHOSPHATASE [3]: 375.67 u/L
- ASPARTATE AMINOTRANSFERASE [3]: 86.67 u/L
- BLOOD UREA NITROGEN [3]: 13.67 mg/dL
- CARBON DIOXIDE [3]: 32 mmol/L
- CHLORIDE [3]: 100.33 MEQ/L
- CHOLESTEROL [3]: 70.33 mg/dL
- CREATINE PHOSPHOKINASE [3]: 289 u/L
- CREATININE [3]: 0.36 mg/dL
- GLUCOSE [3]: 128.67 mg/dL
- LACTATE DEHYDROGENASE [3]: 147.33 u/L
- LIPASE [3]: 11.67 u/L
- PHOSPHORUS [3]: 11.83 mg/dL
- POTASSIUM [3]: 6.53 MEQ/L
- SODIUM [3]: 144.47 MEQ/L
- TOTAL BILIRUBIN [3]: 0.2 mg/dL
- TOTAL PROTEIN [3]: 6.07 G/DL
- URIC ACID [3]: 0.8 mg/dL
